By AC50 is commonly meant the concentration at which the activity in the assay is half-maximal. In general, IC50 refers to the concentration that inhibits the measured activity by half.

In ChEMBL document CHEMBL1201862, “PubChem BioAssay data set” (2004) one finds AC50 and IC50 data, which are given here for seven compounds.

Calls of active or inactive are those of the source.

Test [1] can be described thus: cytotoxicity in COV362 ovarian cancer cells, dose response, cytotoxicity control for PAX8 inhibitor project, cell-based, plate reader, dry powder, SA12 (AID 743144). The format is functional.
Test [2] in a line: IGROV1 ovarian cancer cell cytotoxicity, dose response, PAX8 inhibitor project, plate reader, dry powder samples (AID 743043). Particulars: IGROV-1. Format: functional, cell-based.
The nature of test [3]: NIH:OVCAR-3 ovarian cancer cell cytotoxicity, dose response, PAX8 inhibitor project, plate reader, dry powder samples (AID 743044). Format: functional, cell-based.
Another test has as its target Paired box protein Pax-8 (Homo sapiens, UniProt Q06710). As to the kind of experiment: inhibitors of PAX8-driven TPO luciferase reporter, dose response, RMG-I cells, cherry-pick (AID 687027).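 Further: luciferase reporter driven by Pax8 target thyroperoxidase promoter measured by SteadyGlo luminescence.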 Format: functional, cell-based. A general note: In a reporter assay the amount or activity of a reporter protein is the signal.
Test [4] can be described thus: cytotoxicity in OV-90 ovarian cancer cells, dose response, PAX8 inhibitor project, cell-based, plate reader, dry powder, SA8 (AID 743149). The format is functional.
The nature of test [5]: cytotoxicity in COV434 cells, dose response, cytotoxicity control for PAX8 inhibitor project, cell-based, plate reader, dry powder, SA7 (AID 743145). Format: functional.
A short description of test [6]: cytotoxicity dependent on PAX8, dose response, cell-based, plate reader, dry powder (AID 743049). The format is functional.
A short description of test [7]: IOSE-T80 ovarian epithelial cell cytotoxicity, dose response, cytotoxicity control for PAX8 inhibitor project, plate reader, dry powder samples (AID 743045). The format is functional, cell-based.
Test [8] can be described thus: PAX5 activity inhibitors, dose response, selectivity assay for PAX8 inhibitor project, cell-based, plate reader, dry powder samples (AID 743047).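 Further: HEK293 cells carrying a Pax5 driven CD19 promoter luciferase reporter; potency of inhibitors that lower reporter luminescence.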 The format is functional.
Test [9] can be described thus: cytotoxicity in OVCAR4 cells, dose response, cytotoxicity control for PAX8 inhibitor project, cell-based, plate reader, dry powder, SA11 (AID 743150). Particulars: OVCAR-4. The format is functional.
In test [10] the target is G-protein coupled receptor 183 (Homo sapiens, UniProt P32249). As to the kind of experiment: SAR confirmation of small molecule antagonists of the EBI2 receptor via a luminescent beta-arrestin assa. Format: functional.
The nature of test [11]: MALME3 melanoma cell viability reduction, dose response, orthogonal assay for MITF inhibitor project, CellTiter-Glo luminescence, dry powder, set 5 (AID 651584). The format is functional, cell-based. To be noted: MALME-3.
Test [12] can be described thus: SK-MEL-5 parental line viability, dose response, MITF inhibitor project, cell-based, CellTiter-Glo, dry powder, set 6 (AID 624429). Format: functional. On the technique in general: ATP-based viability assays read luminescence as a measure of living cells.
The nature of test [13]: A375 melanoma cell viability loss, dose response, counter-screen for MITF inhibitor project, CellTiter-Glo luminescence, dry powder, set 4 (AID 624364).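 Further: A375 melanoma cells are MITF independent so this is a counter screen.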 The format is functional, cell-based. To be noted: A-375. (A counterscreen serves to expose hits that act by an unwanted route or on another target.)
Test [14] can be described thus: MITF Measured in Cell-Based System Using Plate Reader - 2084-01_Inhibitor_Dose_DryPowder_Activity_Set6. Format: functional.
Test [15] in a line: MITF Orthogonal Assay: MALME3 CTG Assay Measured in Cell-Based System Using Plate Reader - 2084-04_Inhibitor_Dose_DryPowder_Activity_Set6. To be noted: MALME-3. Format: functional.
Test [16] can be described thus: A375 melanoma cell cytotoxicity, dose response, counter-screen for MITF inhibitor project, CellTiter-Glo luminescence, dry powder, set 6 (AID 624488). Format: functional, cell-based. Particulars: A-375.
A short description of test [17]: MITF Orthogonal Assay: SK-MEL-5 CTG Assay Measured in Cell-Based System Using Plate Reader - 2084-02_Inhibitor_Dose_DryPowder_Activity_Set5. Format: functional.
Test [18] can be described thus: A375 melanoma cell cytotoxicity, dose response, counter-screen for MITF inhibitor project, CellTiter-Glo luminescence, dry powder, set 2 (AID 624489).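 Further: actives are compounds lowering A375 viability meaning general cytotoxicity.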 Particulars: A-375. Format: functional, cell-based.
Test [19] is described as follows: cytotoxicity in primary human melanocytes, dose response, cytotoxicity control, cell-based, plate reader, dry powder (AID 651920). The format is functional.
Test [20] can be described thus: TRPM1 promoter luciferase reporter signal decrease, dose response, MITF inhibitor project, cell-based, SK-MEL-5, dry powder, set 9 (AID 651588). Format: functional.
A short description of test [21]: A375 melanoma cell viability loss, dose response, counter-screen for MITF modulator project, CellTiter-Glo luminescence, dry powder, set 9 (AID 651591). Format: functional, cell-based. To be noted: A-375.
Test [22] is described as follows: SK-MEL-5 parental cell viability reduction, dose response, orthogonal assay for MITF inhibitor project, CellTiter-Glo luminescence, dry powder, set 8 (AID 651586). Format: functional, cell-based.
The nature of test [23]: MITF Measured in Cell-Based System Using Plate Reader - 2084-01_Inhibitor_Dose_DryPowder_Activity_Set7. The format is functional.
Test [24] in a line: A375 melanoma cell cytotoxicity, dose response, counter-screen for MITF inhibitor project, CellTiter-Glo luminescence, dry powder, set 7 (AID 624490). Particulars: A-375. Format: functional, cell-based.
Test [25] can be described thus: A549 cell cytotoxicity, dose response, cytotoxicity control, 24 h, CellTiter-Glo luminescence, cherry-picks (AID 1053115). To be noted: A549, 24 h. The format is functional, cell-based.
Test [26] has as its target T1, Tyrosine-protein phosphatase non-receptor type 7 (Homo sapiens, UniProt P35236).
T1 sequence (P35236 whole entry): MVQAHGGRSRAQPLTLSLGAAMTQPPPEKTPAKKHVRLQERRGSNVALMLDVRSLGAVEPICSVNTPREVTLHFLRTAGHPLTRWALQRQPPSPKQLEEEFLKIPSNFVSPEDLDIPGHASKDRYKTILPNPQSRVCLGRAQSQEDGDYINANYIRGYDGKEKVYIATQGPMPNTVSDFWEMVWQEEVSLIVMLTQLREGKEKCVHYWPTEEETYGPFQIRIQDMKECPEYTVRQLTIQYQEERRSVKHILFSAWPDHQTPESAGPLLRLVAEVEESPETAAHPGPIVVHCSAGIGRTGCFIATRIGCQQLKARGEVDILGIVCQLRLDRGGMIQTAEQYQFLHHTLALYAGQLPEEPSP
As to the kind of experiment: inhibitors of human HePTP phosphatase, […], biochemical, absorbance, leukemia target (AID 521). The format is functional.

The nature of test [27]: RKO cell viability reduction, dose response, CellTiter-Glo luminescence (AID 1117322). The format is functional.
Test [28] is described as follows: HeLa 2N DNA content increase, dose response, cell-based, IC50 (AID 1117349). The format is functional.
Test [29] is described as follows: CellTiter-Glo luminescent dose response of DLD-1 viability loss (AID 1117352). The format is functional.
Test [30] is described as follows: cytotoxicity toward HCT116 cells – cell-based, CellTiter-Glo luminescence, IC50, dose response (AID 1117332). The format is functional. To be noted: HCT-116.
A short description of test [31]: HCT116 cell viability decrease, GSK3B pretreatment – CellTiter-Glo, IC50, dose response (AID 1117339). The format is functional. To be noted: HCT-116.
Test [32] in a line: SNU-C1 cell viability reduction, dose response, CellTiter-Glo luminescence (AID 1117323). Format: functional, cell-based.
Test [33] can be described thus: Luminescence Cell-Based Dose Retest to Confirm Inhibitors of Cancer Stem Cells. [Related pubchem assays (depositor defined):AID2717, AID2721]. Format: functional. To be noted: Homo sapiens.
The nature of test [34]: Concentration-dependent survival of SW480 colon cancer line, luminescence detection with CellTiter-Glo, half-maximal inhibitory concentration (AID 1117338). Format: functional.
Test [35] can be described thus: cytotoxicity toward Colo320 cells – cell-based, CellTiter-Glo luminescence, IC50, dose response (AID 1117334). Format: functional. Particulars: COLO 320.
A short description of test [36]: cytotoxicity toward HT-29 cells – cell-based, CellTiter-Glo luminescence, IC50, dose response (AID 1117330). Format: functional.
Test [37] is described as follows: HeLa 4N DNA content increase, dose response, cell-based, IC50 (AID 1117351). The format is functional.
The target of test [38] is E3 ubiquitin-protein ligase UHRF1 (Homo sapiens, UniProt Q96T88). As to the kind of experiment: Counterscreen for inhibitors of 5-meCpG-binding domain protein 2 (MBD2): TRFRET-based biochemical high throughput dose response assay to identify inhibitors of binding of ubiquitin-like with PHD and ring finger domains 1 (UHRF1) to methylated oligonucleotide.
Chain of E3 ubiquitin-protein ligase UHRF1 (Q96T88 whole entry, the tested form may be a part): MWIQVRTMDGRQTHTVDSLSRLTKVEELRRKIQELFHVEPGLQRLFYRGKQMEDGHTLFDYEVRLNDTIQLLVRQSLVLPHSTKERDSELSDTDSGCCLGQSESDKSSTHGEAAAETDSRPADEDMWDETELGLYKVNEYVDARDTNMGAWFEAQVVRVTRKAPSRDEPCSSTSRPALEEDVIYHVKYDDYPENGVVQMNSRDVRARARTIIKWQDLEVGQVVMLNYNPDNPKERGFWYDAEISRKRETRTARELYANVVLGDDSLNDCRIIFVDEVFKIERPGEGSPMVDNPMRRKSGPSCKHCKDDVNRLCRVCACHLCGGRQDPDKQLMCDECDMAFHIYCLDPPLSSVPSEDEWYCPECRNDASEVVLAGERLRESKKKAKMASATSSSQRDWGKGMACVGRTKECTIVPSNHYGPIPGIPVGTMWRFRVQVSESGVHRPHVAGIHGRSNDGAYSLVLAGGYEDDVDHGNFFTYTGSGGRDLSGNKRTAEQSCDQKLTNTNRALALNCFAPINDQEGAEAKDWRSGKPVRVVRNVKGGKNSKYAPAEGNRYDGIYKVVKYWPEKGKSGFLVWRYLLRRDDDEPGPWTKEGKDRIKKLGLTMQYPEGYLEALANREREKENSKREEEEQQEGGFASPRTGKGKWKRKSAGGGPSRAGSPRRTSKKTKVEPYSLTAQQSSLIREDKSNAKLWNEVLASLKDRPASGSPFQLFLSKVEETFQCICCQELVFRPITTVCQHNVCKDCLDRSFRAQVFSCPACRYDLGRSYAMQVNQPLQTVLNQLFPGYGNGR

Chain of Paired box protein Pax-8 (Q06710 whole entry): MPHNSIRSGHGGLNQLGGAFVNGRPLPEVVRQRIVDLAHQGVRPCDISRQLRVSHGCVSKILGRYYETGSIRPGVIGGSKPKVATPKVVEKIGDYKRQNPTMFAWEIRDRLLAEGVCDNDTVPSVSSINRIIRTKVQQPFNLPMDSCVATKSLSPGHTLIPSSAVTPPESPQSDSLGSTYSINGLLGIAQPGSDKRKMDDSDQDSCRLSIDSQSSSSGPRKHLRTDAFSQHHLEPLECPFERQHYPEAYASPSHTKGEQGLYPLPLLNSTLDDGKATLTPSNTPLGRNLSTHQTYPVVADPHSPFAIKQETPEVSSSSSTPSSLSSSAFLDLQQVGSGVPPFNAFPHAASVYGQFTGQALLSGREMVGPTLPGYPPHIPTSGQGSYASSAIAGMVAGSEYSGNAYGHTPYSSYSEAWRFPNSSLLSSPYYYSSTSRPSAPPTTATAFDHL
Chain of G-protein coupled receptor 183 (P32249 whole entry): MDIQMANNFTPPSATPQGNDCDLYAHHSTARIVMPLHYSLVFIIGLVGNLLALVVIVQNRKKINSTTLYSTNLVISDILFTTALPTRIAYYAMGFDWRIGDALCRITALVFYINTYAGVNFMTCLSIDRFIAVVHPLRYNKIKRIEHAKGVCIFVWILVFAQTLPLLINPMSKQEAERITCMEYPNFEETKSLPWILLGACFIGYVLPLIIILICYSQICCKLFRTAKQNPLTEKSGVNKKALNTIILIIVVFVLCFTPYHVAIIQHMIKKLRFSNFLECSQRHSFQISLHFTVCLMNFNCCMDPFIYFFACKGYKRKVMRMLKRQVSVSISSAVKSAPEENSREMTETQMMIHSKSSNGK

As to `NS(=O)(=O)c1ccc(CCN2C(=O)/C(=C\c3ccc(Cl)cc3)SC2=S)cc1`, the AC50 in test [1] is 24.9 µM (active); in test [2] it was 30.4 µM (active); in [3], 22.3 µM (active); at Paired box protein Pax-8, 3.81 µM (active); in [4], 26.2 µM (active); in test [5], 29.8 µM (active). Besides, the AC50 was 15.5 µM (active) in test [6], 79.8 µM (active) in test [7], 67.7 µM (active) in test [8] and 48.2 µM (active) in [9].
`O=C(/C=C/c1ccccc1)N1CCN(Cc2ccc(Cl)cc2)CC1`: the half-inhibitory concentration (IC50) in test [10] was 0.0984 µM (active).
Consider `COC1=C(NS(=O)(=O)c2ccccc2)C(=O)c2ccccc2C1=O`, for which the AC50 in test [11] was 31.8 µM (active); in test [12], 16.4 µM (active); in [13] it was > 70 µM (inactive); in test [14], 6.32 µM (active); in test [15] it was 31.8 µM (active); in [16] it was > 70 µM (inactive). The AC50 was 9.13 µM (active) in [17]; > 70 µM (inactive) in test [18]; 27.5 µM (active) in test [19]; 18.9 µM (active) in [20]; > 70 µM (inactive) in test [21]; 14.5 µM (active) in test [22]. The AC50 was 7.44 µM (active) in test [23] and > 70 µM (inactive) in test [24].
For `OC[C@H]1Nc2ccc(-c3cccc(F)c3)cc2[C@H]2[C@@H]1CCN2Cc1ccc(F)cc1`, the AC50 in test [25] is 45.3 µM (active).
For `Cc1c(C(=O)N2CCOCC2)[nH]c2ccc(OCc3ccccc3)cc12`, the half-inhibitory concentration (IC50) in test [26] is recorded as > 100 µM (not active).
Regarding `O=C1[C@H]2CCCC[C@H]2C(=O)N1CCCCN1CCN(c2nsc3ccccc23)CC1`, the IC50 is 0.546 µM (active) in test [27]; > 10 µM (inactive) in test [28]; 8.24 µM (inactive) in [29]; 2.06 µM (active) in test [30]; 1.67 µM (active) in test [31]; 9.37 µM (inactive) in test [32]. Also, the IC50 was 5.91 µM (inactive) in test [34], 13.2 µM (inactive) in [35], 2.01 µM (active) in test [36] and > 10 µM (inactive) in test [37]. In addition, the AC50 in test [33] was 3.47 µM (active).
Consider `OCCCNCc1cccc2ccccc12`, for which, in [38], the IC50 was > 43.9 µM (inactive).
